Laboratory results reported in EP2181589A1, “Neurotoxic sterol glycosides” (Shaw, Christopher Ariel, priority 2008, dated 2010).

System: CD-1 mice
Assay: Wire hang test
Type: in vivo
Description: Five-month old male CD-1 mice (30.1-35.7 g, 7.5 cm - 8.8 cm) were purchased from Charles River (Wilmington, MA). Adult mice were chosen to mimic the mean age of onset of ALS-PDC (Kurland, 1988; Kurland et al., 1994). Thirty mice for the SG study were randomly divided into 2 groups (14 control and 16 experimental animals). All animals were housed singly in a virus-free barrier facility in a room maintained at 22°C under a 12 hour light/dark cycle. The mice were provided ad libitum access to food and water.
The synthetic SG was mixed with finely ground Purina Chow mouse pellets (Mouse Diet™, Purina) to create the experimental pellets with a SG content of 1000 µg per pellet. Dry materials were blended with a sterile silicon spatula. For every 5 g of standard feed, 2.5 mL of doubly-distilled water (dd)H2O was added and the dough was kneaded and round up into pellets. A single sterol glucoside containing pellet was placed in the feeding tray each morning before the addition of regular mouse chow (ad libitum). All experimental pellets were entirely consumed by the mice each day. Control mice were fed standard mouse chow pellets of identical weight with no additives. SG feeding was conducted daily for 15 weeks and mice were behaviorally monitored until sacrifice at 35 weeks (time point 1) or 52 weeks (time point 2).
Wire hang: Neuromuscular strength was tested by the wire hang (or hanging wire) test (Wilson et al., 2003d; Wilson et al., 2004c; Wilson et al., 2005; Tabata et al., 2008). Both balance and grip strength are required for a mouse to keep its body suspended (Crawley, 2000). Mice were placed on a wire cage lid elevated 50 cm above a soft landing surface. The latency to fall off the wire (maximum 60 seconds) (Sango et al., 1996) was measured from the moment the wire apparatus was inverted (180°). Wire hang testing was conducted biweekly.

With `CCC(C=CC(C)C1CCC2C3CC=C4CC(OC5OC(CO)C(O)C(O)C5O)CCC4(C)C3CCC12C)C(C)C` (stereo not drawn) [SG] the “increase in the time between inversion of the apparatus and falling” value (SG fed mice, control group showed an increase) was “did not”, the Wirehang test performance (SG-fed animals, prior to 35 weeks) was “decline in performance” and the Wirehang (SG-fed vs control, time-point 2, 52 wk) was “Wirehang* (*p<0.05)”.
